Like-named read-outs stand apart in the source and are kept apart here.
Experiments:
MV4-11 (Leukemia) = assay: WST-1 anticancer cell proliferation assay, MV4-11; format: cell-based
Method: (§1) Anticancer activity was tested against several standard cancer cell lines including brain, breast, Kaposi sarcoma, leukemia, lung, melanoma, tenosynovial giant cell tumor, ovarian, pancreatic, colon and prostate cancer. Cells were trypsinized and plated into 96 well plates in 50 μl of media and incubated overnight. The next day approximately 18 hours after plating, 50 μl of media containing the required flavonoid-based pharmaceutical composition was added per well. Cells were plated at a density so that 72 hours post drug addition, the cells will be in log phase (500)-2000 cells/well). The compounds and extracts were solubilized in Dimethyl sulfoxide (DMSO). The cells are allowed to proliferate for 72 hours 37° C. in humidified atmosphere of 5% CO2. The experiment is terminated using WST-1 (Roche®) 10 μl per well and absorbance is read at 450 nm %690 nm. The effect of drugs on growth is assessed as percent of cell viability. The IC50 values were determined from the extract dose versus control growth curves using Graphpad Prism® software. All experiments were carried out in duplicate and the mean results determined.

Normal Bone marrow = assay: Cell viability, normal bone marrow; format: cell-based; details: Table 4
Method: as §1, with “Bioactivity of the above-described compounds has been verified by an anticancer cell proliferation assay using the WST-1 (4-[3-(4-iodophenyl)-2-(4-nitrophenyl)-2H-5-tetrazolio]-1, 3-benzene disulfonate) colorimetric assay by Roche Life Sciences®. Anticancer” for “Anticancer”

[1] = system: MOLM-14 acute myeloid leukemia cell line; assay: WST-1 anticancer cell proliferation assay, MOLM-14; format: cell-based; details: Table 4; read-out: Acute Myeloid Leukemia cell lines MOLM-14 IC50
Method: as §1

FLT3 = biological target: T1, FLT3 (Homo sapiens, UniProt P36888); format: binding
T1 construct: made in house
T1 sequence (P36888 27-993): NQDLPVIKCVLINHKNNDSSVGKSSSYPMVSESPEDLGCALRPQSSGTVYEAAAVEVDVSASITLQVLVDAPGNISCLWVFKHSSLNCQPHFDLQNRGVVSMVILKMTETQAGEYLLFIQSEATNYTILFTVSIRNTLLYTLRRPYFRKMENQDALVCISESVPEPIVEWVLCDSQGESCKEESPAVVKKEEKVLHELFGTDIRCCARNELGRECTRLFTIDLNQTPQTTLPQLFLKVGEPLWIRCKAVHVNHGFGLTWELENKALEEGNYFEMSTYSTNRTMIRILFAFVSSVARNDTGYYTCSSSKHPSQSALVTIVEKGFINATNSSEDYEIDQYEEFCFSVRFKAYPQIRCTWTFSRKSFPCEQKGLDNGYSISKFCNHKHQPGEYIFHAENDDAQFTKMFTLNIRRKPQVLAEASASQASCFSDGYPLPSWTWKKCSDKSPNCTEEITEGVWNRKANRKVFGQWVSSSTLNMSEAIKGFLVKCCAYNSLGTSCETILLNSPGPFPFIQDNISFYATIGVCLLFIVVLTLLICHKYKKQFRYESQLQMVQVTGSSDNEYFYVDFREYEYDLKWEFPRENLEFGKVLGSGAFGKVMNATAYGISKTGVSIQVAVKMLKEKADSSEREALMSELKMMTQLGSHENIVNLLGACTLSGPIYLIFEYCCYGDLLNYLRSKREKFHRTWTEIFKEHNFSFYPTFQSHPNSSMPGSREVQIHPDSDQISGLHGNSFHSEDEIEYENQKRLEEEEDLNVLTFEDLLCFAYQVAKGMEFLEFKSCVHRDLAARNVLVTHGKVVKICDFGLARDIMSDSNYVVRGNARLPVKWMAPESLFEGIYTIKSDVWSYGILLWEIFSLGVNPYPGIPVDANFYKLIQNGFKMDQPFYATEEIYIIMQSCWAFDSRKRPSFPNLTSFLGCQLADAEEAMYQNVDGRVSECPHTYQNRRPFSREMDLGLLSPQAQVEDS
Method: Cannabis flavonoids and their analogs were subjected to kinase inhibition assay. The compounds were first screened at a single concentration of 10 μM in the primary assay. […] To determine the kd or IC50 values, competition binding assays were established, authenticated and executed as described previously. […] See also, Karaman et al., “A Quantitative Analysis Of Kinase Inhibitor Selectivity”, Nat. Biotechnol. […] For most assays, kinases were fused to T7 phage strains (Fabian, supra) and for the other assays, kinases were produced in HEK-293 cells after which they were tagged with DNA for quantitative PCR detection. In general, full-length constructs were used for small, single domain kinases, and catalytic domain constructs for large multi-domain kinases. […] The liganded beads were blocked with excess biotin and washed with blocking buffer (SeaBlock (Pierce), 1% BSA, 0.05% Tween 20, 1 mM DTT) to remove unbound ligand and to reduce non-specific phage binding. […] All reactions were performed in polypropylene 384-well plates in a final volume of 0.04 ml. […] The kinase concentration in the eluates was measured by quantitative PCR. An illustration of the kinase interaction process is presented below. Kd/IC50 values were determined using a standard dose response curve using the hill equation. Curves were fitted using a non-linear least square fit with the Levenberg-Marquardt algorithm.

[2] = system: THP-1 acute myeloid leukemia cell line; assay: WST-1 anticancer cell proliferation assay, THP-1; format: cell-based; details: Table 4; read-out: Acute Myeloid Leukemia cell lines THP-1 IC50
Method: as §1

[3] = Table 4, read-out: Acute Myeloid Leukemia cell lines MV4-11 IC50
[4] = Table 4, read-out: Acute Myeloid Leukemia Kinases FLT3 IC50
[5] = Table 1 kinase panel, read-out: IC50 (nM) FLT3
[6] = Table 3, 72 hours, WST-1, read-out: IC50 (μM) MV4-11 (Leukemia)

Structure (SMILES)	IC50 (MV4-11 (Leukemia); [3]) [µM]	IC50 (Normal Bone marrow) [µM]	IC50 [1] [µM]	IC50 (FLT3; [4]) [nM]	IC50 [2] [µM]	IC50 (FLT3; [5]) [nM]	IC50 (MV4-11 (Leukemia); [6]) [µM]
COc1cc(-c2cc(=O)c3c(O)c(OC)c(O)cc3o2)ccc1O [FBLGS-86]	2.2	> 100	3.1	74	> 100	–	–
O=c1c(O)c(-c2ccc(O)c(O)c2)oc2cc(O)cc(O)c12 [FBLGS-84]	6.3	> 100	7.42	822	–	–	–
COc1cc(-c2cc(=O)c3c(O)c(OC)c(OC)cc3o2)ccc1O [FBLGS-85]	0.9	> 100	1.5	50	> 100	–	–
COc1cc(-c2cc(=O)c3c(O)c(C/C=C(\C)CCC=C(C)C)c(O)cc3o2)ccc1O [FBL-03A]	–	–	–	–	–	> 20000	–
O=c1c(O)c(-c2ccc(O)c(O)c2)oc2cc(O)ccc12 [FBLGS-83]	1.6	–	2.35	578	13	–	–
COc1cc(O)c2c(=O)c(O)c(-c3ccc(O)c(O)c3)oc2c1 [FBLGS-79]	3.41	> 100	4.84	25	> 100	–	–
COc1cc(-c2cc(=O)c3c(O)cc(O)c(CC=C(C)C)c3o2)ccc1O [FBL-03G]	–	–	–	–	–	44	3.1
COc1cc(-c2oc3cc(O)ccc3c(=O)c2O)ccc1O [FBLGS-81]	0.9	> 100	0.7	1.9	> 100	–	–
O=C1CC(c2ccc(O)c(O)c2)Oc2cc(O)cc(O)c21 (stereo not shown) [FBLGS-82]	> 10	> 100	> 10	17400	> 100	–	–
COc1cc(O)c2c(=O)c(O)c(-c3ccc(O)c(O)c3)oc2c1 [FBLGS-78]	5.62	> 100	5.73	307	> 100	–	–
O=c1cc(-c2ccccc2)oc2cc(O)cc(O)c12 [FBLGS-75]	4.35	> 100	4.57	220	> 100	–	–
Cc1cc2oc(-c3cccc(N)c3)cc(=O)c2c([N+](=O)[O-])c1C [FBLGS-76]	1.9	> 100	2.3	870	> 100	–	–
COc1ccc(-c2cc(=O)c3c(O)c(C/C=C(\C)CCC=C(C)C)c(O)cc3o2)cc1OC [FBL-03D]	–	–	–	–	–	> 30000	–
COc1cc(-c2cc(=O)c3c(O)c(CC=C(C)C)c(O)cc3o2)ccc1O [FBL-03B]	–	–	–	–	–	41.9	1.43
O=c1cc(-c2ccc(O)c(O)c2)oc2cc(O)cc(O)c12 [FBLGS-77]	7.21	> 100	7.34	1320	> 100	–	–
COc1ccc(C2CC(=O)c3c(O)cc(O)cc3O2)cc1O (stereo not shown) [FBLGS-74]	> 100	> 100	> 100	16600	> 100	–	–
COc1cc(-c2cc(=O)c3c(O)cc(O)c(C/C=C(\C)CCC=C(C)C)c3o2)ccc1O [FBL-03C]	–	–	–	–	–	> 20000	–
COc1cc(O)c2c(=O)c(O)c(-c3ccc(O)c(OC)c3)oc2c1 [FBLGS-80]	5.86	> 100	6.12	60	> 100	–	–

Source: patent US20180353462A1, “[…] AGENTS […] FLAVONOID DERIVATIVES TARGETING KINASES, SIRTUINS AND ONCOGENIC AGENTS FOR THE TREATMENT OF CANCERS” (priority 2015, published 2018)
